# Where no end group is shown, it is not given here.
# What was measured:
# [1] = tested on: cervical cancer U14 mouse model; settings: 5 mg kg^-1 intraperitoneally; 2nd, 4th and 7th day
# [2] = tested on: in-situ model of pancreatic cancer Pan02; settings: 4 mg kg^-1, presence and absence of light (730 nm, 0.5 W/cm^2), 15th day
# [3] = tested on: mouse breast cancer cells 4T1; settings: absence of light; 100 uL of 0.2 mg mL^-1 intraperitoneally on day 1, 2, 4, 8; 28 days
# [4] = temperature rise in vitro under laser irradiation; format: physicochemical; settings: 0.2 mg mL^-1, 730 nm laser, 0.3 W/cm^2, 10 min
# Method: Firstly, biliverdin-Mn metal complex was chemically synthesized by biliverdin and excess manganese acetate tetrahydrate, and the biliverdin-Mn-[…] conjugate was prepared from biliverdin-Mn metal complex and […] according to the aforementioned chemical synthesis method. […] 1 mL of this conjugate (at a concentration of 0.2 mg mL^-1) was irradiated at 730 nm laser (0.3 W/cm^2) for 10 min, and the temperature rise of the conjugate solution was investigated.
# [5] = tested on: lung cancer Lewis; test: combination of photothermal immunotherapy and immunotherapy (interferon); format: in vivo; settings: conjugate 3 mg kg^-1 combined with interferon 20U/ mouse, initial volume 300 mm^3
# Method: (§1) The biliverdin-[…] conjugate was prepared from biliverdin molecule and […] according to the above chemical synthesis method.
# [6] = tested on: skin melanoma B16-F10; test: as above; format: in vivo; settings: conjugate 3 mg kg^-1 combined with interferon 20U/ mouse, initial volume 300 mm^3
# Method: as §1
# [7] = tested on: mouse colon cancer cells ct-26
# Method: According to the standard tumor mouse modeling method, C57BL/6 mouse model was established, and the mouse colon cancer cells ct-26 were inoculated subcutaneously, and then these mice were fed in SPF environment. […] The mice were divided into the following four groups: blank group (normal saline), conjugate group (no light group) and conjugate group (light group), with 10 mice in each group. These mice were administered once on the 1st, 3rd, 8th and 12th day with the administration concentration being 2 mg kg^-1. Wherein, the mice of the conjugate (light group) were irradiated with laser once 4 hours after administration on the first day, and the parameters were as follows: the laser intensity was 0.5 W/cm^2 and the laser wavelength was 808 nm. The tumor inhibition of mice during the whole treatment cycle (the cycle is 45 days) was monitored.
# [8] = cyclic (three) photothermal heating curves; format: physicochemical; settings: compared with biliverdin molecule; three heating cycles
# [9] = tested on: Human Umbilical Vein Endothelial Cells HUVEC; test: MTT colorimetric method, incubation in the dark; format: cell-based; settings: different concentration gradients
# Method: The biliverdin-[…] conjugate was prepared from biliverdin molecule and […] according to the chemical synthesis method of Example 1. […] The prepared conjugates with different concentration gradients were incubated with Human Umbilical Vein Endothelial Cells HUVEC in the dark, and the biological safety of the conjugates was evaluated by MTT colorimetric method.
substance,measurement,setting,value
biliverdin-EQLESIINFEKLTE conjugate [Example 13],immune effect (CD4+T and CD8+T cells in spleen and draining lymph nodes),[1],has immune effect
biliverdin-Ga-FKFEFKFE conjugate [Example 10],immune promoting factor content in tumor (IFN-7),[2],up-regulate the organism’s immunity
same,immune suppressing factor content in tumor (IL-4 and IL-10),[2],down-regulate the immunosuppressive behavior
biliverdin-IMDQVPFSV conjugate [Example 8],anti-tumor behavior (tumor volume),[3],potential immune anti-tumor activity
biliverdin-Mn-YLEPGPVTA conjugate [Example 7],photo-thermal conversion effect (temperature rise),[4],good photo-thermal conversion effect
biliverdin-PDRAHYNI conjugate [Example 15],combined inhibitory effect on tumor,[5],significantly enhances the anti-tumor effect
same,combined inhibitory effect on tumor,[6],significantly enhances the anti-tumor effect
biliverdin-QQKFQFQFEQQ conjugate [Example 9],therapeutic effect of tumor photothermal immunotherapy (tumor inhibition curve),"[7]; 2 mg kg^-1 on day 1, 3, 8, 12, 45 day cycle",good therapeutic effect
same,tumor clearance,"[7]; light group, 2 mg kg^-1, 808 nm 0.5 W/cm^2, 29th day after treatment",all the mice tumors were cleared
same,tumor recurrence,"[7]; light group, monitored from the 30th day to the 45th day",can effectively prevent tumor recurrence
biliverdin-SIINFEKL conjugate [Example 1],cyclic stability of photothermal heating,[8],better cyclic stability
same,photothermal heating effect,[8],better heating effect
same,cytotoxicity (cell activity),[9],no obvious cytotoxicity

# — patent US20230190933A1, “Immunologically Active Peptide-Biliverdin Conjugate, Preparation Method Therefor and Application Thereof” (priority 2020, published 2023)
